Source: US11197862B2, “Methods of preventing toxicity of platinum drugs” (XOMICS BIOPHARMA, INC., priority 2015, dated 2021)
Like-named read-outs stand apart in the source and are kept apart here.

Columns and labels:
OCT2 [1] = target: T1, OCT2 (Homo sapiens, UniProt O15244); assay: Cmax,u/IC50 or Cmax/IC50,app ratio for clinically relevant inhibition of OCT2-mediated oxaliplatin uptake; design: expressed in transfected cells; host or cells: MDCK-II (Madin-Darby canine kidney type II)
T1 sequence (O15244 1-555): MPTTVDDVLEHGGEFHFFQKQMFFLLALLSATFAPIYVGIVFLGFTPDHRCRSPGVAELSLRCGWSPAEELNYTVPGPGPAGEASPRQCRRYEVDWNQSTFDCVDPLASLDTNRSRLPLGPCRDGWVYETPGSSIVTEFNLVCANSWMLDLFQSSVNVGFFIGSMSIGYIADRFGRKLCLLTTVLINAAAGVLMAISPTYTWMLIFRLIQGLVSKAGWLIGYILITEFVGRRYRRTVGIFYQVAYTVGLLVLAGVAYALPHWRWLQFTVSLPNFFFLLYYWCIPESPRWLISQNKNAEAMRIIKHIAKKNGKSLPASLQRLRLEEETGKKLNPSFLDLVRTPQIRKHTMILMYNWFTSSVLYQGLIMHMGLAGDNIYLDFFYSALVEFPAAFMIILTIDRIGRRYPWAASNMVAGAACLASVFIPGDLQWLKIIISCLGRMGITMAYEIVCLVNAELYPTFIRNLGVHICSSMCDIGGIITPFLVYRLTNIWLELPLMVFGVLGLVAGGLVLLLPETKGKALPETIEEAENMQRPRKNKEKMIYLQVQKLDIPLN
From the text: The FDA has published guidance in predicting if a drug is likely to be a transporter inhibitor in clinics by using data attained in in vitro models. Cmax,u denotes the maximum free, unbound plasma concentration of a drug. […] Thus, characteristics of the in vitro model may be used to predict in vivo effectiveness.

OCT3 = target: T2, OCT3 (Homo sapiens, UniProt O75751); assay: Inhibition of OCT3-mediated oxaliplatin transport in human serum or 4% BSA HBSS
T2 sequence (O75751 1-556): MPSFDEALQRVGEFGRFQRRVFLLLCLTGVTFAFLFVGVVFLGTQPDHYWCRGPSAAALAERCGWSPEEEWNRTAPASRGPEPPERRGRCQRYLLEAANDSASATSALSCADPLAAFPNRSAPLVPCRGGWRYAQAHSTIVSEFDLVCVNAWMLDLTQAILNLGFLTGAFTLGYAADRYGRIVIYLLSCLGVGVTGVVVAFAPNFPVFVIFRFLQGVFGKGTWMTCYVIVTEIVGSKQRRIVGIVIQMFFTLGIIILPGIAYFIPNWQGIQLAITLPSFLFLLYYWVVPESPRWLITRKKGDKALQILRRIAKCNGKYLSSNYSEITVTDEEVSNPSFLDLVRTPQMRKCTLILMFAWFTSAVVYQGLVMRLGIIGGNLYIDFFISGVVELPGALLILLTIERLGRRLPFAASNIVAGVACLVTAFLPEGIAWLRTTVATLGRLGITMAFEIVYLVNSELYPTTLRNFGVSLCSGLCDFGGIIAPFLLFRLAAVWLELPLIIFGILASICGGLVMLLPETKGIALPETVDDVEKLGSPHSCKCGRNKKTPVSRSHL

OCT2 [2] = target: T1, OCT2; assay: Inhibition of OCT2-mediated oxaliplatin transport in 100% human serum or HBSS containing 4% BSA (IC50,app); details: for fold higher potency for OCT2 over OCT1, OCT3, MATE1 and MATE2K in transporting oxaliplatin: from IC50,app of Table 4
[3] = Published clinical pharmacokinetic data; details: from published Cmax and protein binding
OCT2 [4] = target: T1, OCT2; assay: Inhibition of OCT2-mediated metformin uptake in transfected MDCK-II cells
OCT2 [5] = target: T1, OCT2; assay: Inhibition of OCT2-mediated oxaliplatin uptake in transfected MDCK-II cells (protein-free HBSS); details: for inhibition at 30 min, 5 μM / inhibition at 30 min, 50 μM / potency estimated from few doses at 30 min: human
From the text: Fully confluent MDCK cell monolayers were transfected with either cDNA plasmids encoding the human transporter to be tested or a GFP control. […] The cells were then washed with ice-cold PBS and lysed with 50:50 acetonitrile:H2O. Intracellular content of the substrate was quantified by LC/MS/MS or a MicroBeta radiometric plate reader.

OCT1 = target: T3, OCT1 (Homo sapiens, UniProt O15245); assay: Inhibition of OCT1-mediated oxaliplatin transport in human serum or 4% BSA HBSS
T3 sequence (O15245 1-554): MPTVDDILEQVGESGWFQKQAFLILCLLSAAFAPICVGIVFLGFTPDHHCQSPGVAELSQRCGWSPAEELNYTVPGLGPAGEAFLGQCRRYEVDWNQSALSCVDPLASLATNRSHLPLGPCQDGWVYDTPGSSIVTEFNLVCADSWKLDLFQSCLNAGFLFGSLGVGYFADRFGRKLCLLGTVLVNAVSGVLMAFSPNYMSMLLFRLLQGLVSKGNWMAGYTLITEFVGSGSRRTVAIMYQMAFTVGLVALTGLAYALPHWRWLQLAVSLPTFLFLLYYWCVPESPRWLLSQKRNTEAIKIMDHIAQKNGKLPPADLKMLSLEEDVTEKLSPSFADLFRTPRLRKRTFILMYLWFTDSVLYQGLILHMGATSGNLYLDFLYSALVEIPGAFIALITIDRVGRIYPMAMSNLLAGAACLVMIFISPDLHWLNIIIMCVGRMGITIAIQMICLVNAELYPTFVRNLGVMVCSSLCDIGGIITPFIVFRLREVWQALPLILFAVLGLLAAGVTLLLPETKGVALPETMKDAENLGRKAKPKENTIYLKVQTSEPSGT

[6] = cited from earlier work; for Plasma protein binding (%): published data
[7] = test system: MDCK cells expressing OCT2, MATE1 and MATE2K; assay: LDH cytotoxicity of oxaliplatin in MDCK-II triple-transporter model; details: for effect on oxaliplatin induced cytotoxicity in OCT2 expressing cells: buflomedil 3 and 6 μM, dolutegravir 10 μM, erlotinib 6 μM, cimetidine 6 μM, FIG. 6
Procedure: A triple-transporter model for OCT2(SLC22A2), MATE1(SLC47A1), and MATE2-K(SLC47A2) was created by transfecting fully confluent MDCK-II cell monolayers with DNA mixture containing the plasmids encoding OCT2, MATE1, and MATE-2K at concentrations of 40, 15, and 5 ng/μl, respectively. The OCT2 was expressed on the basolateral cell membrane, and MATE1 and MATE2-K were expressed on the apical side of the cells. […] The apical medium was adjusted to pH 6.7 with 25 mM of 2-(N-morpholino) ethanesulfonic acid (MES).
After removal of the media, a drug-free medium was added in both sides. After incubation 24 hours, the medium was collected, and the lactate dehydrogenase (LDH) activity in the medium was measured using an LDH cytotoxicity assay kit (G-Biosciences. St. Louis, Mo.; or Biochain, Newark, Calif.), according to the manufacturers' instructions. Cytotoxicity was evaluated by measuring the LDH activity in the medium.
Cytotoxicity was tested using the same procedure described above.

[8] = IC50,app (μM), apparent inhibition constant in 100% human serum or HBSS containing 4% BSA, OCT2-mediated oxaliplatin uptake
[9] = OCT2 IC50, app (μM), 100% human serum or HBSS containing 4% BSA, 20 μM or 100 μM oxaliplatin
[10] = read-out: Plasma peak total concentration Cmax, published clinical pharmacokinetic data
[11] = MDCK-II cells transfected with human OCT2, probe oxaliplatin 10 μM
[12] = 600 mg dosed IV bolus (FIG. 1B)

Row | Structure (SMILES) | IC50 (OCT3) | IC50 (OCT2 [2]; [8]) | IC50 (OCT2 [2]; [9]) | fold higher potency for OCT2 over OCT1, OCT3, MATE1 and MATE2K in transporting oxaliplatin (OCT2 [2]) | Plasma peak unbound concentration Cmax,u [3] | IC50 (OCT2 [4]) | IC50 (OCT2 [5]) | inhibition at 30 min, 5 μM (OCT2 [5]) | inhibition at 30 min, 50 μM (OCT2 [5]) | IC50 (OCT1) | Plasma protein binding (%) [6] | Cmax [6, 10] | effect on oxaliplatin induced cytotoxicity in OCT2 expressing cells [7] | other results
1 | COc1cc(OC)c(C(=O)CCCN2CCCC2)c(OC)c1 [Buflomedil, 4-pyrrolidin-1-yl-1-(2,4,6-trimethoxyphenyl)butan-1-one] | 28 ± 11.4 µM | 1.45 µM | 1.4 ± 0.2 µM | at least 20 fold | 2.04 µM | 5.7 ± 0.8 µM | 0.78 µM | 87% | 105% | 34.6 ± 7.6 µM | 70% | 6.8 µM | significantly reduced oxaliplatin (OXA) induced cytotoxicity | Cmax/IC50, app ratio (OCT2 [1]; 300 mg po, bid): 4.69; Cmax/IC50, app ratio (OCT2 [1]; 600 mg slow-release, po, qd): 4.97; Mean Cmax ([6]; 300 mg po, bid): 2100 ng/mL; Mean T1/2 ([6]; 300 mg po, bid): 3.4 h; Mean Cmax ([6]; 600 mg slow-release, po, qd): 2200 ng/mL; Mean T1/2 ([6]; 600 mg slow-release, po, qd): >10 h; average clearance ([6]; Group A patients): 292 mL/min; average clearance ([6]; Group B patients, seniors (average age 82 yrs) with impaired renal clearance): 99.5 mL/min; Cmax ([6]; read-out: Mean Cmax, 300 mg po, bid): 6.8 µM; Cmax ([6]; read-out: Mean Cmax, 600 mg slow-release, po, qd): 7.2 µM; IC50 ([7]; Canis lupus familiaris, MDCK, read-out: IC50 for reduction of oxaliplatin-induced cytotoxicity): 6 µM; reduction of cytotoxicity of 100 μM oxaliplatin ([7]; buflomedil 3-1000 μM, LDH release, FIG. 5): reduced cytotoxicity of 100 μM Oxaliplatin in OCT2-expressing cells in a dose-dependent fashion
2 | C[C@@H]1CCO[C@H]2Cn3cc(C(=O)NCc4ccc(F)cc4F)c(=O)c(O)c3C(=O)N12 [Dolutegravir] | > 100 µM | 3.37 µM | 3.4 ± 1 µM |  | 0.05 µM | 0.54 ± 0.09 µM | 0.2 µM |  |  | > 100 µM | 99.5% | 10.9 µM | significantly reduced oxaliplatin (OXA) induced cytotoxicity | Cmax/IC50, app ratio (OCT2 [1]; 50 mg po qd, day 10): 4.36; Cmax/IC50, app ratio (OCT2 [1]; 50 mg po qd, single dose): 3.23; inhibition at 30 min, 5 μM (OCT2 [5]; [11]): 83%; inhibition at 30 min, 50 μM (OCT2 [5]; [11]): 97%; potency estimated from few doses at 30 min (OCT2 [5]; [11]): 0.2 µM; Mean Cmax ([6]; 50 mg po qd, day 10): 6160 ng/mL; Mean T1/2 ([6]; 50 mg po qd, day 10): ~15 h; Mean Cmax ([6]; 50 mg po qd, single dose): 4560 ng/mL; Mean T1/2 ([6]; 50 mg po qd, single dose): 14.2 h; Cmax ([6]; read-out: Mean Cmax, 50 mg po qd, day 10): 14.7 µM; Cmax ([6]; read-out: Mean Cmax, 50 mg po qd, single dose): 10.9 µM
3 | Clc1ccc(COC(Cn2ccnc2)c2ccc(Cl)cc2Cl)c(Cl)c1 (stereo not drawn) [Miconazole] | 49.2 ± 22.6 µM | 3.3 µM | 3.3 ± 0.6 µM | at least 2 fold |  | 142 µM | 1.55 µM | 39% | 97% | 8.4 ± 1.5 µM | 92% | 14.9 µM |  | Cmax/IC50, app ratio (OCT2 [1]; 800 mg IV): 3.64; fold less potent in inhibiting OCT2-mediated metformin transport than ASP+ and oxaliplatin transport (OCT2 [4]; comparison of Table 1 potencies): approximately 70 fold; potency estimated from few doses at 30 min (OCT2 [5]; IC50 (μM) (substrate Oxaliplatin)): 1.55 µM; decrease of plasma concentration at 3 hour [6, 12]: nearly five-fold decrease at 3 hour; plasma half-time (initial phase) [6, 12]: 0.4 h; Mean Cmax ([6]; 800 mg IV): 5000 ng/mL; Mean T1/2 (hour), distribution phase ([6]; 800 mg IV): 0.4 (dis- hour; Mean T1/2 (hour), terminal phase ([6]; 800 mg IV): phase), 8.9 hour; Cmax ([6]; read-out: Mean Cmax, 800 mg IV): 12 µM
